Source: ChEMBL document CHEMBL5465560, “Selectivity Literature for EUbOPEN Chemogenomic Library” (2024)
Each block holds one molecule with its values, some of them ahead of it.

Key:
[1] = molecular target: Phosphatidylinositol 4-kinase beta (Homo sapiens, UniProt Q9UBF8); assay: Selectivity interaction (ActivX KiNativ screen (kinase selectivity in THP-1 cell lysates)) EUB0000639a PI4KB; assay type: subcellular; settings: lysate, at 5 µM
[2] = molecular target: MAP kinase-activated protein kinase 3 (Homo sapiens) (UniProt Q16644); assay: Selectivity interaction (Kinase panel (Invitrogen)) EUB0000639a MAPKAPK3; settings: at 200 nM
[3] = molecular target: T1, Serine/threonine-protein kinase D3 (Homo sapiens) (UniProt O94806); assay: Selectivity interaction (Kinase panel (Invitrogen)) EUB0000639a PRKD3; settings: at 200 nM
T1 sequence (whole entry): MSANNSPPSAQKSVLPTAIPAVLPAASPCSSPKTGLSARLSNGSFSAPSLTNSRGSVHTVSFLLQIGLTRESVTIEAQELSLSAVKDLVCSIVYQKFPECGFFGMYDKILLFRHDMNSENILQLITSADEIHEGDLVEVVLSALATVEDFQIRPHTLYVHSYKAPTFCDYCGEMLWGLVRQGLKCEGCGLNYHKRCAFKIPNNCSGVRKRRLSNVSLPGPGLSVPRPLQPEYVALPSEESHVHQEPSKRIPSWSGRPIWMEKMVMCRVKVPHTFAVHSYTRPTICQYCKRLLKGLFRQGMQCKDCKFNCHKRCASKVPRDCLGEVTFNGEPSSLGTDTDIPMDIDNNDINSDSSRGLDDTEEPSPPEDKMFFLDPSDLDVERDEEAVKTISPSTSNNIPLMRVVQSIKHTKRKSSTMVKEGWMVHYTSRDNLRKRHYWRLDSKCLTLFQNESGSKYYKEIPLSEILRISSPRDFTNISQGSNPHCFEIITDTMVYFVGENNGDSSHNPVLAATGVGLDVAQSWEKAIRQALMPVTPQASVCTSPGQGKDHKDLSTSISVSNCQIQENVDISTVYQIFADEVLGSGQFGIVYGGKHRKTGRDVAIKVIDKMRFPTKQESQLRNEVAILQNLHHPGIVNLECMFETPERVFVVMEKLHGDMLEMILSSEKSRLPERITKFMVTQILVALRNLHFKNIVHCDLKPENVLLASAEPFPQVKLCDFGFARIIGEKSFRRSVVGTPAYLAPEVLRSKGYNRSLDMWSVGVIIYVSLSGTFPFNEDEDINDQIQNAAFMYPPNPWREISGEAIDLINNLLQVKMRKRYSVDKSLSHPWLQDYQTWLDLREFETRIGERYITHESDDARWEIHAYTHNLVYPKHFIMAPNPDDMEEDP

[4] = molecular target: Cyclin-dependent kinase 5/CDK5 activator 1 (Homo sapiens, UniProt Q00535)
[5] = molecular target: N-lysine methyltransferase SMYD2 (Homo sapiens) (UniProt Q9NRG4); assay: Selectivity interaction (Methyltransferase screen (radiometric assays, panel of 8 PRMTs, 21 protein lysine methyltransferases, 3 DNA methyltransferases, and one RNA methyltransferase)) EUB0000271b SMYD2
[6] = molecular target: T2, cGMP-dependent protein kinase 1 (Homo sapiens) (UniProt Q13976); assay: Selectivity interaction (KinomeScan (DiscoverX)) EUB0001079a PRKG1; settings: at 1 µM
T2 sequence (whole entry): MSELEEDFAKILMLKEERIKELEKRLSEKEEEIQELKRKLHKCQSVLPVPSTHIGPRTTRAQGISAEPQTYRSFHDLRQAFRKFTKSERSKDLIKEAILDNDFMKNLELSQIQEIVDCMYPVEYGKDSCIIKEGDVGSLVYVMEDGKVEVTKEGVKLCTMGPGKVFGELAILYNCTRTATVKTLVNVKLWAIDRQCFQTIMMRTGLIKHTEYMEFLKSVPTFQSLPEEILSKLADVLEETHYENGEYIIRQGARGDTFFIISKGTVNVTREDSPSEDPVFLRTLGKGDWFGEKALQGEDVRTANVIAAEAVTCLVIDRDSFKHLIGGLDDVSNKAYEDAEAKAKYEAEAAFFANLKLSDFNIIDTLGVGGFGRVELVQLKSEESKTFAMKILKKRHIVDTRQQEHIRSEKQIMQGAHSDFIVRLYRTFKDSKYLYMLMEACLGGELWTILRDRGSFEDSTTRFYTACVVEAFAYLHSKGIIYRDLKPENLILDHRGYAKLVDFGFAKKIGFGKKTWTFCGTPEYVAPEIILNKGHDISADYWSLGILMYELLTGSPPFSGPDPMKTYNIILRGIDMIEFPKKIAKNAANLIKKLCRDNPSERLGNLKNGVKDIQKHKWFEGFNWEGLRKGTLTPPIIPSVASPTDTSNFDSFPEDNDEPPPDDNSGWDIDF

[7] = molecular target: Bone morphogenetic protein receptor type-1A (Homo sapiens, UniProt P36894); assay: Selectivity interaction (KinomeScan (DiscoverX)) EUB0001079a BMPR1A; settings: at 1 µM
[8] = tested on: Epidermal growth factor receptor (Homo sapiens), P00533 [UNDEFINED MUTATION]; assay: Selectivity interaction (ProQinase) EUB0000171b EGFR; settings: at 5 µM
[9] = molecular target: T3, Mitogen-activated protein kinase 12 (Homo sapiens) (UniProt P53778); assay: Selectivity interaction (KinomeScan (DiscoverX)) EUB0000092b MAPK12; settings: at 10 µM
T3 sequence (whole entry): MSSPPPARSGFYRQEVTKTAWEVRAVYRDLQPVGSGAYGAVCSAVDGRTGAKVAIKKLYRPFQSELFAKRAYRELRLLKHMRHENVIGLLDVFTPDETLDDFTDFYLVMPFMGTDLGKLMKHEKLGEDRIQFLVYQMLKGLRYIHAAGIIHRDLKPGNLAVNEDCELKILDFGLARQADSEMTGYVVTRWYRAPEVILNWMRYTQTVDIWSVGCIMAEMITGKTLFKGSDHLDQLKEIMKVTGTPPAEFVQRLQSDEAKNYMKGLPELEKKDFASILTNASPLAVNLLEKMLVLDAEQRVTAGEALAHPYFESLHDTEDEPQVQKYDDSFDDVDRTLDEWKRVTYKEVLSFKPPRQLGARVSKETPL

[10] = molecular target: Serine/threonine-protein kinase 38-like (Homo sapiens) (UniProt Q9Y2H1); assay: Selectivity interaction (KinomeScan (DiscoverX)) EUB0000092b STK38L; settings: at 10 µM
[11] = molecular target: Serine/threonine-protein kinase pim-2 (Homo sapiens, UniProt Q9P1W9); assay: Selectivity interaction (KinomeScan (DiscoverX)) EUB0000092b PIM2; settings: at 10 µM
[12] = molecular target: Angiopoietin-1 receptor (Homo sapiens) (UniProt Q02763); assay: Selectivity interaction (KinomeScan (DiscoverX)) EUB0000092b TEK; settings: at 10 µM
[13] = molecular target: Phosphatidylinositol 3-kinase catalytic subunit type 3 (Homo sapiens, UniProt Q8NEB9); assay: Selectivity interaction (ActivX KiNativ screen (ex vivo kinase selectivity in human PBMCs)) EUB0001619a PIK3C3; assay type: cell-based; settings: PBMC, at 1 µM

Chain of N-lysine methyltransferase SMYD2 (Homo sapiens) (Q9NRG4 whole entry): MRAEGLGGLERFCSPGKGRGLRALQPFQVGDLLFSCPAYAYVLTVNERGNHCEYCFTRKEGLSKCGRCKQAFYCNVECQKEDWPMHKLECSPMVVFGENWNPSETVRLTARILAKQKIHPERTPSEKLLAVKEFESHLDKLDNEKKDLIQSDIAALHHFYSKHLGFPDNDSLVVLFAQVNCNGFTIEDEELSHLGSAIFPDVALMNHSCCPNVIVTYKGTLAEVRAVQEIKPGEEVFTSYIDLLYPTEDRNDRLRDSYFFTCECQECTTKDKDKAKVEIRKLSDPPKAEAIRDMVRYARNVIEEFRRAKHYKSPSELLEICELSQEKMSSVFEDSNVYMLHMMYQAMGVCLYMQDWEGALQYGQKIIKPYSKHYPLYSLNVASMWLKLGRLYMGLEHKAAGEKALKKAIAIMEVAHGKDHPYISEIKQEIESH
Chain of Serine/threonine-protein kinase pim-2 (Q9P1W9 whole entry, looked up): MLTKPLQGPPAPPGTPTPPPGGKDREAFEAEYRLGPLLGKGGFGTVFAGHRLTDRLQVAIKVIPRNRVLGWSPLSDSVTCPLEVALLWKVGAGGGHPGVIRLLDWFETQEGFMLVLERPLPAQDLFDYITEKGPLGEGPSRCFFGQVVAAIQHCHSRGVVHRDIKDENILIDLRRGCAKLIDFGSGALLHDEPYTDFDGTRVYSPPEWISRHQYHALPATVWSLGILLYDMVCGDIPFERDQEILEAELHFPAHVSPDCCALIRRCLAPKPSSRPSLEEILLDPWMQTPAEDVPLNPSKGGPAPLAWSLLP
Chain of Phosphatidylinositol 4-kinase beta (Q9UBF8 2-816 limits assumed): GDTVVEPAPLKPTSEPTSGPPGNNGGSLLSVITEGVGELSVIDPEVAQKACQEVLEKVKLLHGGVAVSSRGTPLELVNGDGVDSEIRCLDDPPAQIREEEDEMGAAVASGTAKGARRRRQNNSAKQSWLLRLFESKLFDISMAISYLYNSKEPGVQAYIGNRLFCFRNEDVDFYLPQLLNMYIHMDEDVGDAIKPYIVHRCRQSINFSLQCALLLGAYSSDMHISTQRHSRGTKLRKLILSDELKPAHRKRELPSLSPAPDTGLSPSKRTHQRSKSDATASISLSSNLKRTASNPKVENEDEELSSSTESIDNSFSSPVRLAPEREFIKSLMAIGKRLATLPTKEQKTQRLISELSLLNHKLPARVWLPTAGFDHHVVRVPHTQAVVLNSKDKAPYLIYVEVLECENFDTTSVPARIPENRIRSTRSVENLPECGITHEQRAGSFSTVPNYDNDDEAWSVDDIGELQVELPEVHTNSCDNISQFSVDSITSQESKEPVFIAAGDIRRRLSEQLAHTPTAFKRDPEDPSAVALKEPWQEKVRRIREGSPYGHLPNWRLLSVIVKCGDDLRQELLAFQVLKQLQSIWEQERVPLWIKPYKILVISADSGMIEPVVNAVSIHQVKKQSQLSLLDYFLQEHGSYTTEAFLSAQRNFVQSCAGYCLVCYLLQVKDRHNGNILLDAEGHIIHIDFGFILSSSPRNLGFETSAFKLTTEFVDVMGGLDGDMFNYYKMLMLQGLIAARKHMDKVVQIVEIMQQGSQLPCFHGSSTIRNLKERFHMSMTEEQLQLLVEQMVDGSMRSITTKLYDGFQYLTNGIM
Chain of Serine/threonine-protein kinase 38-like (Homo sapiens) (Q9Y2H1 2-464 limits assumed): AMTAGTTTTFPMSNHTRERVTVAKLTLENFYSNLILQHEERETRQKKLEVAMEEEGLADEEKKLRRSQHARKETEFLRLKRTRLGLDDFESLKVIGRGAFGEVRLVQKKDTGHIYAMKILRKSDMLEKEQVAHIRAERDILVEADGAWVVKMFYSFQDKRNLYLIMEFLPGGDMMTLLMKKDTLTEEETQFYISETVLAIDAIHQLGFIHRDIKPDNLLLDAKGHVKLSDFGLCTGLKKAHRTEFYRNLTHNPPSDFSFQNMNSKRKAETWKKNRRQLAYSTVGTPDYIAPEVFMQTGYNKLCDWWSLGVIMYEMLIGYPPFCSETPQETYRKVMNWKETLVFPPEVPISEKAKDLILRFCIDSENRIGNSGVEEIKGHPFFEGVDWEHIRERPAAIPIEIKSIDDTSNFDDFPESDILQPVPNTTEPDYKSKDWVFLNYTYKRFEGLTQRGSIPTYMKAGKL
Chain of Cyclin-dependent kinase 5/CDK5 activator 1 (Q00535 whole entry): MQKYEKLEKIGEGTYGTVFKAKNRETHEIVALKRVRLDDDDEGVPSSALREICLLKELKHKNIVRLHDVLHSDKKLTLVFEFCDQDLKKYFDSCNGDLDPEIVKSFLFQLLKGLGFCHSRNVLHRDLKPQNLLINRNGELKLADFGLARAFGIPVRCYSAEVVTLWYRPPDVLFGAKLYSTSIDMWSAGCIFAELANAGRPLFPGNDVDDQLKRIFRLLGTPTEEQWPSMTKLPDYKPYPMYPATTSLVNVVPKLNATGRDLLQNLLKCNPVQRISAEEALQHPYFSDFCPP
Chain of Cyclin-dependent kinase 5/CDK5 activator 1 (Q15078 whole entry, further chain): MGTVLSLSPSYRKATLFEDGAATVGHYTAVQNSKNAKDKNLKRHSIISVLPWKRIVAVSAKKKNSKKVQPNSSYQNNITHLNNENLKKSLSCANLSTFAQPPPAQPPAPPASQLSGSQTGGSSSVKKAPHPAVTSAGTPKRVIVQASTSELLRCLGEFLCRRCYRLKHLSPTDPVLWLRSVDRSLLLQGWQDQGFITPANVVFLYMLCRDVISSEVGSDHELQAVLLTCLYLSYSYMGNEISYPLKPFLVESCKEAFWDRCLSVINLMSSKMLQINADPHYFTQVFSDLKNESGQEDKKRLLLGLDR
Chain of Bone morphogenetic protein receptor type-1A (P36894 whole entry): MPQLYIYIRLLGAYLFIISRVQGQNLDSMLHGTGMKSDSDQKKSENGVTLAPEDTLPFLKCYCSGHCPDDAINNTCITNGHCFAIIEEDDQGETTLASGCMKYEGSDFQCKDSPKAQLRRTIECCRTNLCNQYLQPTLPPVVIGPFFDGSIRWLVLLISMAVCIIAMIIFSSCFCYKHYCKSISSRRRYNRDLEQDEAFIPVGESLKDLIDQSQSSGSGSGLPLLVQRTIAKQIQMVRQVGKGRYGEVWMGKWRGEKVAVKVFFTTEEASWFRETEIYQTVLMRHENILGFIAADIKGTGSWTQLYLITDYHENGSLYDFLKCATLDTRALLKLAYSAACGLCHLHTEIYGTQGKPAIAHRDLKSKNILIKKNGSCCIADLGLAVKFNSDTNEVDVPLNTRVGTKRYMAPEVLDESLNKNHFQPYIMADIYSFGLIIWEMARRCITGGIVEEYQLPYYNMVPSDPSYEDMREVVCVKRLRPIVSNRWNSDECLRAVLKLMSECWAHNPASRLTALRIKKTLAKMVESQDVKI
Chain of MAP kinase-activated protein kinase 3 (Homo sapiens) (Q16644 whole entry, looked up): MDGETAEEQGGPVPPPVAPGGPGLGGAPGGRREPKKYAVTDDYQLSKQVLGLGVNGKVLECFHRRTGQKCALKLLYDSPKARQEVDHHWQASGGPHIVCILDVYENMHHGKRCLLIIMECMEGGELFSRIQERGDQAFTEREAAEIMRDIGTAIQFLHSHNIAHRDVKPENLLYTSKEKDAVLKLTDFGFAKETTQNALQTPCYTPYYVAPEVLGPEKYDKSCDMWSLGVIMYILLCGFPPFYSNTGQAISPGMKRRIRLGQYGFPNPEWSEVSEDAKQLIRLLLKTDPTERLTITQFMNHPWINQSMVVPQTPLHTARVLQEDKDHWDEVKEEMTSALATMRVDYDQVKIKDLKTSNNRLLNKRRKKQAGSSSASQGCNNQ
Chain of Epidermal growth factor receptor (Homo sapiens), P00533 [UNDEFINED MUTATION] (P00533 whole entry, looked up, change not shown): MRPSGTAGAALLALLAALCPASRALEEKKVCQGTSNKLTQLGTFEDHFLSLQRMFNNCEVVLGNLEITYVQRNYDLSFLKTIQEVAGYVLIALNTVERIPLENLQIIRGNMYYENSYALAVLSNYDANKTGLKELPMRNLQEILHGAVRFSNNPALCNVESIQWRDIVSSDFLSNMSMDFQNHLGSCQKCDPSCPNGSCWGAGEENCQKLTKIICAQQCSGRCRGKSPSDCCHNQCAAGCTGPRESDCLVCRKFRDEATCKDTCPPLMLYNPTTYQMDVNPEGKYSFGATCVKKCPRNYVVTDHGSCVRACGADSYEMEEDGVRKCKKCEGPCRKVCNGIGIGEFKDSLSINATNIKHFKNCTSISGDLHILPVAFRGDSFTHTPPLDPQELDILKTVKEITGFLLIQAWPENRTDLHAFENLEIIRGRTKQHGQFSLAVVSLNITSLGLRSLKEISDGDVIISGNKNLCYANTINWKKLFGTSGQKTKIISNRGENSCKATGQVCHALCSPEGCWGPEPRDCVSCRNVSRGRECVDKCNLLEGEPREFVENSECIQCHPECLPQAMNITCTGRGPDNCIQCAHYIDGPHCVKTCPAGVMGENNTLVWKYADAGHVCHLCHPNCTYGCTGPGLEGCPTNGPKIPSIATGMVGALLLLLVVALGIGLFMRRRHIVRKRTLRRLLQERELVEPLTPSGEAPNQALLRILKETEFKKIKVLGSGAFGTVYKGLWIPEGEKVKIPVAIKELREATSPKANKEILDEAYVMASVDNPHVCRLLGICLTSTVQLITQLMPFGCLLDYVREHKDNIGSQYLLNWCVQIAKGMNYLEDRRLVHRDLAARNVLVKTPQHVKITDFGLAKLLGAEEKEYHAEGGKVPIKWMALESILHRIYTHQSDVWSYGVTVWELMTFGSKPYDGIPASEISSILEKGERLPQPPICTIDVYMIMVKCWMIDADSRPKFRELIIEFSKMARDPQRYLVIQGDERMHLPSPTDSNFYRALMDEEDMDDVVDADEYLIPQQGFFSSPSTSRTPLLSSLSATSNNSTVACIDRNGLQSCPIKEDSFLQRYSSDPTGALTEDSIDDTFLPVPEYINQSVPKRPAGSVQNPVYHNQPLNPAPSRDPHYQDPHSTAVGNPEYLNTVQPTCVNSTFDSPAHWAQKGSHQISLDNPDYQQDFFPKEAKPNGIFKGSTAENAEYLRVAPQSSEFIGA

% of inhibition [1]: 5.2%
% of inhibition [2]: 3.83%
% of inhibition [3]: 10.2%
Structure (SMILES): CC[C@@H]1[C@H](F)C(=O)N[C@@H]1COc1nccc2cc(C(N)=O)c(OC)cc12 [ZIMLOVISERTIB]

IC50 [4]: > 10 µM
Structure (SMILES): CCc1cccc(CC)c1NC(=O)c1nn(C)c2c1CCc1cnc(Nc3ccc(C(=O)NC4CCN(C)CC4)cc3OC(F)(F)F)nc1-2

Structure (SMILES): Cc1cc(C)cc([C@@H]2c3cc(C)ccc3NC(=O)CN2C(=O)c2ccc(Br)s2)c1
% of activity ([5]; at 1 µM): 101%
% of activity ([5]; at 10 µM): 96.7%

Structure (SMILES): Nc1cnc(N2CCc3cc(S(=O)(=O)Nc4c(F)cc(Cl)cc4F)cc(N4CCCC4=O)c32)nc1 [TP-020n]
% of control [6]: 97%
% of control [7]: 91%

% of control [8]: 101%
Structure (SMILES): C=CC(=O)Nc1cccc(C(=O)Nc2ccc(Nc3cc(-c4[nH]c(SC)nc4C)ccn3)cc2)c1

Structure (SMILES): CCC(=O)N1CCN(c2ccc(-n3c(=O)ccc4cnc5ccc(-c6cnc7ccccc7c6)cc5c43)cc2C(F)(F)F)CC1
% of control [9]: 71%
% of control [10]: 94%
% of control [11]: 62%
% of control [12]: 19%

Structure (SMILES): N#Cc1cccc(-c2c[nH]c3ncnc(N4CCOCC4)c23)c1
% of inhibition [13]: -17%
